biological target: Leucine-rich repeat serine/threonine-protein kinase 2 (Homo sapiens, UniProt Q5S007, G2019S); experiment: Inhibition of Kinase tracer 236 binding to GST-tagged truncated human LRRK2 G2019S (970 to 2527 residues) mutant using fluorescein labeled LRRKtide peptide as substrate preincubated for 15 mins followed by substrate addition measured after 90 mins in presence of ATP at Km concentration by TR-FRET Lanthascreen assay
Sequence (Q5S007 whole entry G2019S, the tested form may be a part): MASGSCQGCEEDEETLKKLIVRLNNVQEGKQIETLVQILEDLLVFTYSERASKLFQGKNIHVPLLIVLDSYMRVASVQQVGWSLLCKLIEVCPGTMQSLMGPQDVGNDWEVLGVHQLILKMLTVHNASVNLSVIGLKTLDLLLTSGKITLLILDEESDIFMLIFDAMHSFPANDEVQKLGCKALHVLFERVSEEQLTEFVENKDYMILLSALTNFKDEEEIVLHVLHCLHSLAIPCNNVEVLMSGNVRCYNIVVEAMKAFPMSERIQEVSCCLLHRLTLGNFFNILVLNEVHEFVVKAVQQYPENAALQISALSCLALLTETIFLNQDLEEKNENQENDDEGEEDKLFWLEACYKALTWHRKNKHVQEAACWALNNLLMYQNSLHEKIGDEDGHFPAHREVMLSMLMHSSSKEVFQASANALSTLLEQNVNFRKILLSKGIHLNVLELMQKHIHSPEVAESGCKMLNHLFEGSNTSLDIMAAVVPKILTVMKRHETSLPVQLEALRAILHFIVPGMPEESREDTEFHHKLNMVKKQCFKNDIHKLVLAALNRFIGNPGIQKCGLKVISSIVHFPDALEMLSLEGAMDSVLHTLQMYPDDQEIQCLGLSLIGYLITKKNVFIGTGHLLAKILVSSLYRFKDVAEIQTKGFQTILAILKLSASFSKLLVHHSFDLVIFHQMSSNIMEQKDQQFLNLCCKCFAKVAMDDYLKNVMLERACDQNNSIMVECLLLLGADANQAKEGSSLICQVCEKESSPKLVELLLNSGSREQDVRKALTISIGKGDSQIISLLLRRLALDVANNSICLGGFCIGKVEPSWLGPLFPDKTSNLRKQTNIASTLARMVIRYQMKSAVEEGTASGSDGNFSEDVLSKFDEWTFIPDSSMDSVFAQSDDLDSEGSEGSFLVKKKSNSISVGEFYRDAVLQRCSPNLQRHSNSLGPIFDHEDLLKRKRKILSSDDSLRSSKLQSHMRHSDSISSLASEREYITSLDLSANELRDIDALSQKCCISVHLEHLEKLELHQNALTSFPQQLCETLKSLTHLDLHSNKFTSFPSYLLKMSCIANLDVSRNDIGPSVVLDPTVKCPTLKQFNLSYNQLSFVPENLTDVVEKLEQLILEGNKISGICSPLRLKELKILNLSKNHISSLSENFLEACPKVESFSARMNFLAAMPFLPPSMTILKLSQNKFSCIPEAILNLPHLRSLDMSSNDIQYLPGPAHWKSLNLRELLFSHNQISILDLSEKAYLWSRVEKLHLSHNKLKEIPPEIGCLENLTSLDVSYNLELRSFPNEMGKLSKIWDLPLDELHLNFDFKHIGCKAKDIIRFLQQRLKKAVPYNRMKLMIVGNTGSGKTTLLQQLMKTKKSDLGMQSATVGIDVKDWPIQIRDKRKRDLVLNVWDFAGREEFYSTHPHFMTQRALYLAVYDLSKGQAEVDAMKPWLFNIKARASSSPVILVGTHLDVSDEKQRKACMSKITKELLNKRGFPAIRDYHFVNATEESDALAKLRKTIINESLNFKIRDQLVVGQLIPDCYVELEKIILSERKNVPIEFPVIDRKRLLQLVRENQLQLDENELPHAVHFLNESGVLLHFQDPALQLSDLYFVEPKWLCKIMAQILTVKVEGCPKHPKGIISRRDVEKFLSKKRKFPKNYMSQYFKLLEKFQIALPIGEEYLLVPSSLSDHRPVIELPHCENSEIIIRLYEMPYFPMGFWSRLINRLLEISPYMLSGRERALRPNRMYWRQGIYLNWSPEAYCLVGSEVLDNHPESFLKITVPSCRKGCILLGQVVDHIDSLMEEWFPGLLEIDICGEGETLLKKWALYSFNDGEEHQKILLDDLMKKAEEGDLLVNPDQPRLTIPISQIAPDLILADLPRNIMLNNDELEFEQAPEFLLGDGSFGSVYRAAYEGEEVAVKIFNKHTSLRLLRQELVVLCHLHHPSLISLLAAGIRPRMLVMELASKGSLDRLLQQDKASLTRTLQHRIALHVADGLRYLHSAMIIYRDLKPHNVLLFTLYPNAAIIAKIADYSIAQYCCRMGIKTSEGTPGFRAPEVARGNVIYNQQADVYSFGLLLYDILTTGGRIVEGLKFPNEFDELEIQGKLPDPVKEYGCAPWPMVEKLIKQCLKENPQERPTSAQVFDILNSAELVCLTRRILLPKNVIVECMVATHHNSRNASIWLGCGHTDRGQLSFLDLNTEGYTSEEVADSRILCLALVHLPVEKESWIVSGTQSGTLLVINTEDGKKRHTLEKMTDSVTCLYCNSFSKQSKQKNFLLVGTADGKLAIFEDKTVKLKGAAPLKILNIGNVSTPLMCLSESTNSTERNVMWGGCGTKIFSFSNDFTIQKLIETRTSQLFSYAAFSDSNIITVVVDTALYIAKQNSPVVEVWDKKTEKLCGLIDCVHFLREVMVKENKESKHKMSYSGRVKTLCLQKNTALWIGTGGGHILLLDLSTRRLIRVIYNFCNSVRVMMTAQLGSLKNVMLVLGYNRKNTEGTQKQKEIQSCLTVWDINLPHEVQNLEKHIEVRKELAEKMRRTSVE

SMILES	IC50 [nM]
Cc1c(Nc2ncc3cc(Cl)c(C4CCN(C5COCC5F)CC4)cc3n2)cnn1C1CC1 (stereo unspecified)	< 0.631
N#CC1COCC1N1CCC(c2cc3nc(Nc4cnn(C5CC5)c4Cl)ncc3cc2Cl)CC1 (stereo unspecified)	< 0.631
Cc1cc(Nc2ncc3cc(Cl)c(C4CCN(C5COC5)CC4)cc3n2)sn1	< 0.631
Cc1c(Nc2ncc3cc(Cl)c(C4CCN(C5COC5)[C@@H](C)C4)cc3n2)cnn1C1CC1 (stereo partly specified)	< 0.631
Cc1c(Nc2ncc3cc(Cl)c(C4CCN(C5(C)COC5)CC4)cc3n2)cnn1C1CCOC1 (stereo unspecified)	< 0.631
O=S1(=O)CC(N2CCC(c3cc4nc(Nc5cnn(C6CC6)c5Cl)ncc4cc3Cl)CC2)C1	< 0.631

Reference: ChEMBL document CHEMBL4825716, “Novel N-Heteroaryl Quinazolin-2-amine Derivatives as LRRK2 Inhibitors for Treating Parkinson's Disease” (ACS Med Chem Lett, 2021)
